Test results from patent publication US4904669A, “Thiazolo/4,5-c/quinolines as major tranquilizers” (EGIS Gyogyszergyar, priority 1985, dated 1990).

Legend:
[1] = Acute toxicity (Litchfield and Wilcoxon); conditions: rat, in vivo, deaths within 48 h
pain reactions = assay: Hot plate test; type: in vivo, rats; conditions: Rattus norvegicus, 56° C. plate, 1 h after administration
Procedure: The method of Woolfe and McDonald (1944) modified by Porszasz and Herr (1950) was used. The effect of each dose of the drugs was checked on a group of 10 rats. The experiments were performed on metal plates maintained at 56° C. The latency time of pain reactions was determined prior to and 1 h after the administration of the test compound. It was regarded as 100% effect if the reaction time was prolonged by more than 2.5 times the control value.

writhing = assay: Writhing test (peritoneal), acetic acid; type: in vivo; conditions: Mus musculus, mice, acetic acid i.p.
Procedure: The method originally described by […] (1956) for rats modified by Witkin et al. (1961) and Koster and Anderson (1959), respectively, for mice was applied. Each dose was administered to a group of ten mice and after 20 min. 60 mg/kg of 0.6% acetic acid solution was injected i.p. As a result of chemical irritation of the peritoneum a characteristic writhing can be observed in 90% of control animals. Ten animals treated with compounds under test were kept under observation for 20 min. following i.p. injection of acid. The analgetic effect of individual doses was expressed in per cent: [formula] The denominator was taken as 90% on the basis of preliminary control examination and the […] literature.

[2] = test system: conditioned avoidance reflex (CAR); assay: Shuttle-box, acquisition of two-way conditioned avoidance reflex (CAR); type: in vivo
Procedure: The acquisition of a two-way conditioned avoidance reflex (CAR) was analyzed in the shuttle-box during 5 consecutive days.
The instrument was constructed by the Research Institute for Electrical Industry (Hungary). It consists of six boxes, each is separated inside by a barrier with a small gate in the middle. […] They were given 100 trials per day. One trial consisted of 15 s intertrial interval, followed by 15 s CS. The last 5 s of CS overlapped the […]. At each learning session the number of CAR and intersignal reactions (IR) was automatically counted and evaluated by multiway analysis of variance (ANOVA).

[3] = test system: conditioned reflex (CR) / unconditioned reflex (UR); assay: Screening test, learning and retention during one session conditioning; type: in vivo, rats
Procedure: I was elaborated for studing learning and retention of rats during one session conditioning.
During conditioning rats are trained to jump onto the top of glass cylinder by the electric foot-shock (110 V). The escape reaction (unconditioned reflex, UR) is paired with a bell as conditioned stimulus. The criterion of learning is that conditioned reflex (CR) should be elicited 10 times with 10 s intervals without reinforcement. Retention of CR is taken positive when 24 h following the experiment CR can be elicited. In these experiments animals are distributed into 4 categories on the basis of their learning ability.

[4] = test system: Benzodiazepine (BZD) receptor; assay: Benzodiazepine (BZD) receptor binding, displacement of 3H-diazepam; conditions: crude cortical membrane, 1 hr at 0° C., pH 6.8; control drug
Procedure: 10. For the Studies of Benzodiazepine (BZD) Receptor Binding crude cortical membrane preparation was used. 2/ μM ^3 H-diazepam was incubated with the membrane for 1 hr at 0° C. in TRIS-citrate buffer, pH 6.8. Specific binding was determined in the presence of 10/ μM diazepam. In displacement studies chlordiazepoxid was used as control drug.

c1ccc2c(c1)ncc1ncsc12 [Thiazolo[4,5-c]quinoline-ethanesulfonate, thiazolo[4,5-c]quinoline-ethanesulfonate]
LD50 at 48 h ([1]; iv): 51 mg/kg
LD50 at 48 h ([1]; po, starved 16 h): 290 mg/kg
LD50 at 48 h ([1]; sc): 280 mg/kg
ED50 (pain reactions; po): 72 mg/kg
ED50 (pain reactions; sc): 8 mg/kg
ED50 (writhing; po): 70 mg/kg
ED50 (writhing; sc): 56 mg/kg
intersignal reactions (IR) ([2]; s.c., 10 mg/kg, day 1): 6.5
negative responses (-f) ([2]; s.c., 10 mg/kg, day 1): 17.2
positive responses (F), acquisition of conditioned reflex ([2]; s.c., 10 mg/kg, day 1): 23.5
intersignal reactions (IR) ([2]; s.c., 10 mg/kg, day 2): 8.8
negative responses (-f) ([2]; s.c., 10 mg/kg, day 2): 7.1
positive responses (F), acquisition of conditioned reflex ([2]; s.c., 10 mg/kg, day 2): 44.2
intersignal reactions (IR) ([2]; s.c., 10 mg/kg, day 3): 5.5
negative responses (-f) ([2]; s.c., 10 mg/kg, day 3): 2.4
positive responses (F), acquisition of conditioned reflex ([2]; s.c., 10 mg/kg, day 3): 51.6
intersignal reactions (IR) ([2]; s.c., 10 mg/kg, day 4): 8.2
negative responses (-f) ([2]; s.c., 10 mg/kg, day 4): 1.2
positive responses (F), acquisition of conditioned reflex ([2]; s.c., 10 mg/kg, day 4): 66.8
intersignal reactions (IR) ([2]; s.c., 10 mg/kg, day 5): 6.3
negative responses (-f) ([2]; s.c., 10 mg/kg, day 5): 6.2
positive responses (F), acquisition of conditioned reflex ([2]; s.c., 10 mg/kg, day 5): 65.1
intersignal reactions (IR) ([2]; s.c., 25 mg/kg, day 1): 11.1
negative responses (-f) ([2]; s.c., 25 mg/kg, day 1): 70.3
positive responses (F), acquisition of conditioned reflex ([2]; s.c., 25 mg/kg, day 1): 8.1
intersignal reactions (IR) ([2]; s.c., 25 mg/kg, day 2): 8.8
negative responses (-f) ([2]; s.c., 25 mg/kg, day 2): 41.8
positive responses (F), acquisition of conditioned reflex ([2]; s.c., 25 mg/kg, day 2): 25.3
intersignal reactions (IR) ([2]; s.c., 25 mg/kg, day 3): 7.0
negative responses (-f) ([2]; s.c., 25 mg/kg, day 3): 40.4
positive responses (F), acquisition of conditioned reflex ([2]; s.c., 25 mg/kg, day 3): 23.3
intersignal reactions (IR) ([2]; s.c., 25 mg/kg, day 4): 10.3
negative responses (-f) ([2]; s.c., 25 mg/kg, day 4): 46.3
positive responses (F), acquisition of conditioned reflex ([2]; s.c., 25 mg/kg, day 4): 30.8
intersignal reactions (IR) ([2]; s.c., 25 mg/kg, day 5): 4.0
negative responses (-f) ([2]; s.c., 25 mg/kg, day 5): 61.3
positive responses (F), acquisition of conditioned reflex ([2]; s.c., 25 mg/kg, day 5): 15.5
intersignal reactions (IR) ([2]; s.c., 50 mg/kg, day 1): 9.2
negative responses (-f) ([2]; s.c., 50 mg/kg, day 1): 66.8
positive responses (F), acquisition of conditioned reflex ([2]; s.c., 50 mg/kg, day 1): 8.9
intersignal reactions (IR) ([2]; s.c., 50 mg/kg, day 2): 7.1
negative responses (-f) ([2]; s.c., 50 mg/kg, day 2): 35.2
positive responses (F), acquisition of conditioned reflex ([2]; s.c., 50 mg/kg, day 2): 24.5
intersignal reactions (IR) ([2]; s.c., 50 mg/kg, day 3): 4.2
negative responses (-f) ([2]; s.c., 50 mg/kg, day 3): 51.5
positive responses (F), acquisition of conditioned reflex ([2]; s.c., 50 mg/kg, day 3): 20.8
intersignal reactions (IR) ([2]; s.c., 50 mg/kg, day 4): 3.3
negative responses (-f) ([2]; s.c., 50 mg/kg, day 4): 61.8
positive responses (F), acquisition of conditioned reflex ([2]; s.c., 50 mg/kg, day 4): 14.6
intersignal reactions (IR) ([2]; s.c., 50 mg/kg, day 5): 2.6
negative responses (-f) ([2]; s.c., 50 mg/kg, day 5): 72.8
positive responses (F), acquisition of conditioned reflex ([2]; s.c., 50 mg/kg, day 5): 16.2

O=C(CCCN1CCC(O)(c2ccc(Cl)cc2)CC1)c1ccc(F)cc1 [haloperidol, reference compound]
inhibition of developing conditioned reflex ([3]; 0.025 mg/kg): strong inhibition

Cl.c1ccc2c(c1)ncc1ncsc12 [Thiazolo[4,5-c]quinoline-hydrochloride, thiazolo[4,5-c]quinoline-hydrochloride]
LD50 at 48 h ([1]; iv): 55 mg/kg
LD50 at 48 h ([1]; po, starved 16 h): 350 mg/kg
LD50 at 48 h ([1]; sc): 260 mg/kg
ED50 (pain reactions; po): 60 mg/kg
ED50 (pain reactions; sc): 7.5 mg/kg
ED50 (writhing; po): 82 mg/kg
ED50 (writhing; sc): 32 mg/kg
inhibition of development of conditioned reflex ([3]; 10 mg/kg): strong inhibition
inhibition of development of conditioned reflex ([3]; 25 mg/kg): complete inhibition

CNC1=Nc2ccc(Cl)cc2C(c2ccccc2)=[N+]([O-])C1 [Chlordiazepoxide]
inhibition of development of conditioned reflex ([3]; 10 mg/kg): does not influence
number of negative responses (f) ([2]; 10 mg/kg, in words): increased
acquisition of conditioned reflex ([2]; 10 and 5 mg/kg): unchanged
intersignal reactions (IR) ([2]; 10 and 5 mg/kg, in words): unchanged
intersignal reactions (IR) ([2]; s.c., 5 mg/kg, day 1): 10.8
negative responses (-f) ([2]; s.c., 5 mg/kg, day 1): 11.8
positive responses (F), acquisition of conditioned reflex ([2]; s.c., 5 mg/kg, day 1): 23.1
intersignal reactions (IR) ([2]; s.c., 5 mg/kg, day 2): 14.0
negative responses (-f) ([2]; s.c., 5 mg/kg, day 2): 9.1
positive responses (F), acquisition of conditioned reflex ([2]; s.c., 5 mg/kg, day 2): 38.7
intersignal reactions (IR) ([2]; s.c., 5 mg/kg, day 3): 8.9
negative responses (-f) ([2]; s.c., 5 mg/kg, day 3): 10.2
positive responses (F), acquisition of conditioned reflex ([2]; s.c., 5 mg/kg, day 3): 35.6
intersignal reactions (IR) ([2]; s.c., 5 mg/kg, day 4): 6.7
negative responses (-f) ([2]; s.c., 5 mg/kg, day 4): 14.9
positive responses (F), acquisition of conditioned reflex ([2]; s.c., 5 mg/kg, day 4): 41.1
intersignal reactions (IR) ([2]; s.c., 5 mg/kg, day 5): 4.2
negative responses (-f) ([2]; s.c., 5 mg/kg, day 5): 13.0
positive responses (F), acquisition of conditioned reflex ([2]; s.c., 5 mg/kg, day 5): 50.8
intersignal reactions (IR) ([2]; s.c., 10 mg/kg, day 1): 10.8
negative responses (-f) ([2]; s.c., 10 mg/kg, day 1): 32.7
positive responses (F), acquisition of conditioned reflex ([2]; s.c., 10 mg/kg, day 1): 19.9
intersignal reactions (IR) ([2]; s.c., 10 mg/kg, day 2): 14.7
negative responses (-f) ([2]; s.c., 10 mg/kg, day 2): 22.8
positive responses (F), acquisition of conditioned reflex ([2]; s.c., 10 mg/kg, day 2): 37.9
intersignal reactions (IR) ([2]; s.c., 10 mg/kg, day 3): 8.1
negative responses (-f) ([2]; s.c., 10 mg/kg, day 3): 31.8
positive responses (F), acquisition of conditioned reflex ([2]; s.c., 10 mg/kg, day 3): 33.7
intersignal reactions (IR) ([2]; s.c., 10 mg/kg, day 4): 6.3
negative responses (-f) ([2]; s.c., 10 mg/kg, day 4): 36.5
positive responses (F), acquisition of conditioned reflex ([2]; s.c., 10 mg/kg, day 4): 35.6
intersignal reactions (IR) ([2]; s.c., 10 mg/kg, day 5): 6.1
negative responses (-f) ([2]; s.c., 10 mg/kg, day 5): 40.8
positive responses (F), acquisition of conditioned reflex ([2]; s.c., 10 mg/kg, day 5): 41.2
intersignal reactions (IR) ([2]; s.c., 25 mg/kg, day 1): 6.8
negative responses (-f) ([2]; s.c., 25 mg/kg, day 1): 74.0
positive responses (F), acquisition of conditioned reflex ([2]; s.c., 25 mg/kg, day 1): 9.7
intersignal reactions (IR) ([2]; s.c., 25 mg/kg, day 2): 7.3
negative responses (-f) ([2]; s.c., 25 mg/kg, day 2): 67.5
positive responses (F), acquisition of conditioned reflex ([2]; s.c., 25 mg/kg, day 2): 12.2
intersignal reactions (IR) ([2]; s.c., 25 mg/kg, day 3): 6.2
negative responses (-f) ([2]; s.c., 25 mg/kg, day 3): 67.0
positive responses (F), acquisition of conditioned reflex ([2]; s.c., 25 mg/kg, day 3): 17.9
intersignal reactions (IR) ([2]; s.c., 25 mg/kg, day 4): 8.2
negative responses (-f) ([2]; s.c., 25 mg/kg, day 4): 65.6
positive responses (F), acquisition of conditioned reflex ([2]; s.c., 25 mg/kg, day 4): 20.0
intersignal reactions (IR) ([2]; s.c., 25 mg/kg, day 5): 6.0
negative responses (-f) ([2]; s.c., 25 mg/kg, day 5): 59.8
positive responses (F), acquisition of conditioned reflex ([2]; s.c., 25 mg/kg, day 5): 21.4
displacement of 3H-diazepam on the receptor [4]: displaced ^3 H-diazepam on the receptor in concentration dependent manner
